The data set is described as follows: Bioaccumulation log Pow (slow stirring method). The text has this: As mentioned before. The environmental acceptability of these esterquat surfactant compounds is of essential importance for emulsion breaking operations in oil production processes.

Regarding “Dioleic acid triethanolamine esterquat [Di-oleic acid triethanolamine esterquat]”, the “bioaccumulation: log Pow” value came to 0.73.
